± gives the expanded uncertainty stated by the source.

The nature of this series: molar enthalpy of vaporization or sublimation. The settings on record: 298.15 K; Liquid; Static calorimetry.

As for `COC(=O)c1cccn1C` [methyl 1-methyl-2-pyrrolecarboxylate], the molar enthalpy came to 14.1 ± 0.287 kcal/mol.

The values are drawn from the NIST ThermoML archive (doi:10.1016/j.jct.2013.08.004).
